For the assay, the target named is T1, ΔF508-CFTR (Homo sapiens, UniProt P13569, DEL508-508).
T1 construct: expressed in transfected cells
Nature of the assay: EC50 and relative efficacy as modulators of ΔF508-CFTR (membrane potential optical assay). The format is cell-based. The note with it: for % Activity: relative efficacy. The source says: I) Membrane Potential Optical Methods for Assaying ΔF508-CFTR Modulation Properties of Compounds
The optical membrane potential assay utilized voltage-sensitive FRET sensors described by Gonzalez and Tsien (See., Gonzalez, J. E. and R. Y. Tsien (1995) “Voltage sensing by fluorescence resonance energy transfer in single cells” Biophys J 69(4): 1272-80, and Gonzalez, J. E. and R. Y. Tsien (1997) “Improved indicators of cell membrane potential that use fluorescence resonance energy transfer” Chem Biol 4(4): 269-77) in combination with instrumentation for measuring fluorescence changes such as the Voltage/Ion Probe Reader (VIPR) (See Gonzalez, J. E., K. Oades, et al. (1999) “Cell-based assays and instrumentation for screening ion-channel targets” Drug Discov Today 4(9): 431-439).
These voltage sensitive assays are based on the change in fluorescence resonant energy transfer (FRET) between the membrane-soluble, voltage-sensitive dye, DiSBAC2(3), and a fluorescent phospholipid, CC2-DMPE, which is attached to the outer leaflet of the plasma membrane and acts as a FRET donor. Changes in membrane potential (Vm) cause the negatively charged DiSBAC2(3) to redistribute across the plasma membrane and the amount of energy transfer from CC2-DMPE changes accordingly. The changes in fluorescence emission were monitored using VIPR which is an integrated liquid handler and fluorescent detector designed to conduct cell-based screens in 96- or 384-well microtiter plates.
To identify small molecules that correct the trafficking defect associated with ΔF508-CFTR; a single-addition HTS assay format was developed. The cells were incubated in serum-free medium for 16 hrs at 37° C. in the presence or absence (negative control) of test compound. As a positive control, cells plated in 384-well plates were incubated for 16 hrs at 27° C. to “temperature-correct” ΔF508-CFTR. The cells were subsequently rinsed 3× with Krebs Ringers solution and loaded with the voltage-sensitive dyes. To activate ΔF508-CFTR, 10 μM forskolin and the CFTR potentiator, genistein (20 μM), were added along with Cl^−-free medium to each well. The addition of Cl^−-free medium promoted Cl^− efflux in response to LF508-CFTR activation and the resulting membrane depolarization was optically monitored using the FRET-based voltage-sensor dyes.
To identify potentiators of ΔF508-CFTR, a double-addition HTS assay format was developed. During the first addition, a Cl^−-free medium with or without test compound was added to each well. After 22 sec, a second addition of Cl^−-free medium containing 2-10 μM forskolin was added to activate ΔF508-CFTR. The extracellular Cl^− concentration following both additions was 28 mM, which promoted Cl^− efflux in response to ΔF508-CFTR activation and the resulting membrane depolarization was optically monitored using the FRET-based voltage-sensor dyes.
NIH3T3 mouse fibroblasts stably expressing ΔF508-CFTR are used for optical measurements of membrane potential. The cells are maintained at 37° C. in 5% CO2 and 90% humidity in Dulbecco's modified Eagle's medium supplemented with 2 mM glutamine, 10% fetal bovine serum, 1×NEAA, (3-ME, 1× pen/strep, and 25 mM HEPES in 175 cm^2 culture flasks. For all optical assays, the cells were seeded at 30,000/well in 384-well matrigel-coated plates and cultured for 2 hrs at 37° C. before culturing at 27° C. for 24 hrs. for the potentiator assay. For the correction assays, the cells are cultured at 27° C. or 37° C. with and without compounds for 16-24 hoursB) Electrophysiological Assays for assaying ΔF508-CFTR modulation properties of compounds
Compounds of the invention are useful as modulators of ATP binding cassette transporters. Table 3 below illustrates the EC50 and relative efficacy of certain embodiments in Table 1.

The values below come from patent publication US8609703B2, “Modulators of ATP-binding cassette transporters” (Vertex Pharmaceuticals Incorporated, priority 2005, dated 2013).

In general, EC50 refers to the midpoint of the concentration-response curve.

T1 sequence (P13569 with tags, fused parts or gaps DEL508-508): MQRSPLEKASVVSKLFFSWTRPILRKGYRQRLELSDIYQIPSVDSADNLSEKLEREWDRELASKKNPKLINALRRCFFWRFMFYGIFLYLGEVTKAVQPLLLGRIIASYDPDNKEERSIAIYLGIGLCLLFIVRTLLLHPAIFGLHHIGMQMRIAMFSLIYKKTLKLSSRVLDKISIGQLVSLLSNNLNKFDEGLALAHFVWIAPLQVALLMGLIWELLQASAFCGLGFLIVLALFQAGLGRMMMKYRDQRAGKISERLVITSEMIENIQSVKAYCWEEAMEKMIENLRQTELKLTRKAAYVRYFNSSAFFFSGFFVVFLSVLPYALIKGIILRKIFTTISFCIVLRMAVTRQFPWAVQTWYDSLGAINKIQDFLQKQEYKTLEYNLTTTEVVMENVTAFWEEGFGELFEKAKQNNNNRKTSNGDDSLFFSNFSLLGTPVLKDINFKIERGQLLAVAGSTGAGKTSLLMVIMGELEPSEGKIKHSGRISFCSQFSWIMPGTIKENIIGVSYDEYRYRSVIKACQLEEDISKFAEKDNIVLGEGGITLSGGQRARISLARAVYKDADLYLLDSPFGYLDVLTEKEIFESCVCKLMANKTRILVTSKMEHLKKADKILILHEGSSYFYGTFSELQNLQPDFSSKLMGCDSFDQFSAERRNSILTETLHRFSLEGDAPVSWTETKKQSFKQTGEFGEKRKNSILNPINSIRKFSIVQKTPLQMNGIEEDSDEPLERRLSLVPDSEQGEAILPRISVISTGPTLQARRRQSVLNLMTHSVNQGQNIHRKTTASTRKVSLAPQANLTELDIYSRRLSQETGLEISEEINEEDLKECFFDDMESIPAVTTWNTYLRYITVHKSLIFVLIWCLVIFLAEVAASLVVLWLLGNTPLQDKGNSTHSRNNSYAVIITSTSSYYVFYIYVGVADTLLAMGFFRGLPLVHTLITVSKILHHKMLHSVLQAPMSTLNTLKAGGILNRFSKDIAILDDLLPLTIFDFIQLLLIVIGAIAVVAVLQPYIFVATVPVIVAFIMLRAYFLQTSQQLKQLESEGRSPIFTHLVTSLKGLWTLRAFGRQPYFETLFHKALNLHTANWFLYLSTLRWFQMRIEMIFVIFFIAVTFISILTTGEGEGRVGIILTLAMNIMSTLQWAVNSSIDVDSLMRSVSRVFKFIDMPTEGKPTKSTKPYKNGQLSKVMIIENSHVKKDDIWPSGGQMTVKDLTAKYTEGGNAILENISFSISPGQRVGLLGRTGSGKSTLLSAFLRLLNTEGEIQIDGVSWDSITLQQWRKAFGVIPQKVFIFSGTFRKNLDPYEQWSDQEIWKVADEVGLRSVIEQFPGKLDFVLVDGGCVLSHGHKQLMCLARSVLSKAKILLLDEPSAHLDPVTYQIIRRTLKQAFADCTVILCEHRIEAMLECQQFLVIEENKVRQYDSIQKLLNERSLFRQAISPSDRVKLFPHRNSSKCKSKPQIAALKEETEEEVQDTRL

In the case of `O=C(Nc1ccc(F)cc1)C(=O)c1c[nH]c2ccc(Br)cc12` [Cmpd 1], the 50% effective concentration (EC50) is less than 1 µM and the “% Activity” value is “+ (“+” means <25%)”.

`O=C(Nc1ccc(N2CCN(C(c3ccccc3)c3ccccc3)CC2)cc1)C(=O)c1c[nH]c2ccccc12` [Cmpd 2]: the EC50 lay in the range of 1 to 5 µM and the “% Activity” value was “+ (“+” means <25%)”.

Regarding `CCc1ccccc1NC(=O)C(=O)c1c[nH]c2ccccc12` [Cmpd 3, N-(2-Ethyl-phenyl)-2-(1H-indol-3-yl)-2-oxo-acetamide], the 50% effective concentration (EC50) was less than 1 µM and the “% Activity” value was “++ (“++” means between 25% to 100%)”.

For the compound `O=C(Nc1ccc2cc[nH]c2c1)C(=O)c1c[nH]c2ccccc12` [Cmpd 4], the EC50 is less than 1 µM and the “% Activity” value is “++ (“++” means between 25% to 100%)”.

Take `CCCc1ccccc1NC(=O)C(=O)c1c[nH]c2ccccc12` [Cmpd 5]: the concentration giving a half-maximal response (EC50) was less than 1 µM and the “% Activity” value was “++ (“++” means between 25% to 100%)”.

Consider `CC(C)c1ccccc1NC(=O)C(=O)c1c[nH]c2ccccc12` [Cmpd 6], for which the EC50 is less than 1 µM and the “% Activity” value is “++ (“++” means between 25% to 100%)”.

On to `CC(C)(C)c1ccc(NC(=O)C(=O)c2c[nH]c3ccccc23)cc1` [Cmpd 7], for which the EC50 was less than 1 µM and the “% Activity” value is “++ (“++” means between 25% to 100%)”.

Consider `O=C(Nc1ccccc1-c1ccccc1)C(=O)c1c[nH]c2ccccc12` [Cmpd 8], for which the half-maximal effective concentration (EC50) is less than 1 µM and the “% Activity” value is listed as “++ (“++” means between 25% to 100%)”.

As for `O=C(Nc1ccccc1)C(=O)c1c[nH]c2ccccc12` [Cmpd 9], the EC50 lay within 1 to 5 µM and the “% Activity” value is given as “++ (“++” means between 25% to 100%)”.

As for `O=C(Nc1cccc(C(F)(F)F)n1)C(=O)c1c[nH]c2ccccc12` [Cmpd 10], the EC50 was less than 1 µM and the “% Activity” value is reported as “++ (“++” means between 25% to 100%)”.

`Cc1ccccc1Oc1ccccc1NC(=O)C(=O)c1c[nH]c2ccccc12` [Cmpd 11]: the 50% effective concentration (EC50) was less than 1 µM and the “% Activity” value is on record as “++ (“++” means between 25% to 100%)”.

On to `C=C(C)c1ccccc1NC(=O)C(=O)c1c[nH]c2ccccc12` [Cmpd 12], for which the concentration giving a half-maximal response (EC50) is less than 1 µM and the “% Activity” value is “++ (“++” means between 25% to 100%)”.

Turning to `CCCCc1ccccc1NC(=O)C(=O)c1c[nH]c2ccccc12` [Cmpd 13], the concentration giving a half-maximal response (EC50) was less than 1 µM and the “% Activity” value was “++ (“++” means between 25% to 100%)”.

On to `O=C(Nc1ccccc1Oc1ccc(Cl)cc1Cl)C(=O)c1c[nH]c2ccccc12` [Cmpd 14], for which the half-maximal effective concentration (EC50) was less than 1 µM and the “% Activity” value was “++ (“++” means between 25% to 100%)”.

As for `O=C(Nc1ccccc1CN1CCCCC1)C(=O)c1c[nH]c2ccccc12` [Cmpd 15], the concentration for a half-maximal effect (EC50) is less than 1 µM and the “% Activity” value was “++ (“++” means between 25% to 100%)”.

Regarding `Cn1cc(C(=O)C(=O)Nc2ccccc2)c2ccccc21` [Cmpd 16], the EC50 was greater than 5 µM and the “% Activity” value is “++ (“++” means between 25% to 100%)”.

In the case of `Cn1cc(C(=O)C(=O)Nc2ccccc2-c2ccccc2)c2ccccc21` [Cmpd 17], the EC50 was greater than 5 µM and the “% Activity” value was “+ (“+” means <25%)”.

`O=C(Nc1ccccc1CN1CCCC1)C(=O)c1c[nH]c2ccccc12` [Cmpd 18]: the EC50 fell in the range of 1 to 5 µM and the “% Activity” value is given as “++ (“++” means between 25% to 100%)”.

As for `Nc1cc(NC(=O)C(=O)c2c[nH]c3ccccc23)cc(C(F)(F)F)c1` [Cmpd 19], the EC50 was 1 to 5 µM and the “% Activity” value was “++ (“++” means between 25% to 100%)”.

Take `CN1Cc2c(NC(=O)C(=O)c3c[nH]c4ccccc34)cccc2C(c2ccccc2)C1` (stereo not shown) [Cmpd 20]: the EC50 was less than 1 µM and the “% Activity” value is “++ (“++” means between 25% to 100%)”.

Consider `Cc1ccc(C)n1-c1ccccc1NC(=O)C(=O)c1c[nH]c2ccccc12` [Cmpd 21], for which the concentration giving a half-maximal response (EC50) was 1 to 5 µM and the “% Activity” value was “++ (“++” means between 25% to 100%)”.

`O=C(Nc1ccccc1OC(F)F)C(=O)c1c[nH]c2ccccc12` [Cmpd 22]: the 50% effective concentration (EC50) fell in the range of 1 to 5 µM and the “% Activity” value is reported as “++ (“++” means between 25% to 100%)”.

On to `O=C(Nc1ccccc1F)C(=O)c1c[nH]c2ccccc12` [Cmpd 23], for which the EC50 is less than 1 µM and the “% Activity” value is recorded as “++ (“++” means between 25% to 100%)”.

Regarding `CC(C)(C)c1cc(C(C)(C)C)c(NC(=O)C(=O)c2c[nH]c3ccccc23)cc1O` [Cmpd 24], the EC50 was less than 1 µM and the “% Activity” value is recorded as “++ (“++” means between 25% to 100%)”.

On to `CC(C)(C)c1cc2cc[nH]c2cc1NC(=O)C(=O)c1c[nH]c2ccccc12` [Cmpd 25], for which the EC50 is less than 1 µM and the “% Activity” value is “++ (“++” means between 25% to 100%)”.

Consider `CC(C)(C)c1ccccc1NC(=O)C(=O)c1c[nH]c2ccccc12` [Cmpd 26], for which the concentration giving a half-maximal response (EC50) is less than 1 µM and the “% Activity” value is “++ (“++” means between 25% to 100%)”.
